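Values below derive from 48-hour exposures of cells grown in 96-well plates, with endpoints linearly interpolated between the two concentrations bracketing the appropriate inhibition level. GI50 is the concentration that inhibits growth by half.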 The source made the active and inactive calls. No stated cut-off is given here; in the data, active = GI50 up to about 1.1 µM and inactive = higher.
Experiments:
Experiment in all cases: NCI-60 cell line screen, 48 h
SW-620 = tested on: SW-620
NCI-H226 = tested on: NCI-H226
SNB-75 = tested on: SNB-75
IGROV-1 = tested on: IGROV-1
LOX IMVI = tested on: LOX IMVI
SK-MEL-28 = tested on: SK-MEL-28
UACC-62 = tested on: UACC-62
HCC 2998 = tested on: HCC 2998
EKVX = tested on: EKVX
DLD-1 = tested on: DLD-1
SK-MEL-2 = tested on: SK-MEL-2
NCI-H522 = tested on: NCI-H522
SF-295 = tested on: SF-295
786-0 = tested on: 786-0
DMS-114 = tested on: DMS-114
NCI-H23 = tested on: NCI-H23
OVCAR-4 = tested on: OVCAR-4
OVCAR-5 = tested on: OVCAR-5
XF498 = tested on: XF498
CAKI-1 = tested on: CAKI-1
HCT-116 = tested on: HCT-116
COLO 205 = tested on: COLO 205
CCRF-CEM = tested on: CCRF-CEM
SN12C = tested on: SN12C
SK-MEL-5 = tested on: SK-MEL-5
SNB-19 = tested on: SNB-19
Malme-3M = tested on: Malme-3M
KM12 = tested on: KM12
UO-31 = tested on: UO-31
HOP-92 = tested on: HOP-92
A549 = tested on: A549
MOLT-4 = tested on: MOLT-4
HOP-62 = tested on: HOP-62
RXF 393 = tested on: RXF 393
SK-OV-3 = tested on: SK-OV-3
SF-268 = tested on: SF-268
NCI-H460 = tested on: NCI-H460
LXFL 529 = tested on: LXFL 529
TK-10 = tested on: TK-10
U-251 = tested on: U-251
M19-MEL = tested on: M19-MEL
DMS-273 = tested on: DMS-273
SR = tested on: SR
OVCAR-3 = tested on: OVCAR-3
K562 = tested on: K562
M14 = tested on: M14
SF-539 = tested on: SF-539
SNB-78 = tested on: SNB-78
OVCAR-8 = tested on: OVCAR-8
HT-29 = tested on: HT-29
KM-20L2 = tested on: KM-20L2
ACHN = tested on: ACHN
A498 = tested on: A498
HOP-18 = tested on: HOP-18
HL-60 = tested on: HL-60
HCT-15 = tested on: HCT-15
UACC-257 = tested on: UACC-257

Which results are given for `CC(=O)/C=C1\CC(=O)N(C)c2ccccc2N1`?
GI50 (SW-620): > 100 µM (inactive); GI50 (NCI-H226): > 100 µM (inactive); GI50 (SNB-75): 0.0723 µM (active); GI50 (IGROV-1): > 100 µM (inactive); GI50 (LOX IMVI): > 100 µM (inactive); GI50 (SK-MEL-28): > 100 µM (inactive); GI50 (UACC-62): > 100 µM (inactive); GI50 (HCC 2998): > 100 µM (inactive); GI50 (EKVX): > 100 µM (inactive); GI50 (DLD-1): 2.86 µM (inactive); GI50 (SK-MEL-2): > 100 µM (inactive); GI50 (NCI-H522): > 100 µM (inactive); GI50 (SF-295): > 100 µM (inactive); GI50 (786-0): > 100 µM (inactive); GI50 (DMS-114): 29.3 µM (inactive); GI50 (NCI-H23): > 100 µM (inactive); GI50 (OVCAR-4): > 100 µM (inactive); GI50 (OVCAR-5): > 100 µM (inactive); GI50 (XF498): > 100 µM (inactive); GI50 (CAKI-1): > 100 µM (inactive); GI50 (HCT-116): > 100 µM (inactive); GI50 (COLO 205): 44.7 µM (inactive); GI50 (CCRF-CEM): > 100 µM (inactive); GI50 (SN12C): > 100 µM (inactive); GI50 (SK-MEL-5): 0.57 µM (active); GI50 (SNB-19): > 100 µM (inactive); GI50 (Malme-3M): > 100 µM (inactive); GI50 (KM12): > 100 µM (inactive); GI50 (UO-31): > 100 µM (inactive); GI50 (HOP-92): > 100 µM (inactive); GI50 (A549): > 100 µM (inactive); GI50 (MOLT-4): > 100 µM (inactive); GI50 (HOP-62): > 100 µM (inactive); GI50 (RXF 393): > 100 µM (inactive); GI50 (SK-OV-3): > 100 µM (inactive); GI50 (SF-268): > 100 µM (inactive); GI50 (NCI-H460): > 100 µM (inactive); GI50 (LXFL 529): > 100 µM (inactive); GI50 (TK-10): > 100 µM (inactive); GI50 (U-251): > 100 µM (inactive); GI50 (M19-MEL): > 100 µM (inactive); GI50 (DMS-273): > 100 µM (inactive); GI50 (SR): > 100 µM (inactive); GI50 (OVCAR-3): > 100 µM (inactive); GI50 (K562): > 100 µM (inactive); GI50 (M14): > 100 µM (inactive); GI50 (SF-539): > 100 µM (inactive); GI50 (SNB-78): > 100 µM (inactive); GI50 (OVCAR-8): > 100 µM (inactive); GI50 (HT-29): > 100 µM (inactive)

What does the source list for `COC(=O)c1ccc(NC(=O)c2cc(OC)c(OC)c(OC)c2)cc1`?
GI50 (SW-620): 0.955 µM (active); GI50 (NCI-H226): 2.54 µM (inactive); GI50 (SNB-75): 42.1 µM (inactive); GI50 (IGROV-1): 3.17 µM (inactive); GI50 (LOX IMVI): 9.31 µM (inactive); GI50 (SK-MEL-28): 0.798 µM (active); GI50 (UACC-62): 1.09 µM (active); GI50 (KM-20L2): 1.44 µM (inactive); GI50 (HCC 2998): 1.99 µM (inactive); GI50 (EKVX): 38.4 µM (inactive); GI50 (DLD-1): 4.69 µM (inactive); GI50 (SK-MEL-2): 0.798 µM (active); GI50 (NCI-H522): 0.836 µM (active); GI50 (SF-295): 0.8 µM (active); GI50 (786-0): 0.859 µM (active); GI50 (ACHN): 2.71 µM (inactive); GI50 (DMS-114): 0.305 µM (active); GI50 (NCI-H23): 0.0279 µM (active); GI50 (OVCAR-4): 18.9 µM (inactive); GI50 (CAKI-1): 2.16 µM (inactive); GI50 (HCT-116): 0.948 µM (active); GI50 (COLO 205): 0.211 µM (active); GI50 (CCRF-CEM): 3.73 µM (inactive); GI50 (A498): 3.44 µM (inactive); GI50 (SN12C): 1.85 µM (inactive); GI50 (SK-MEL-5): 0.195 µM (active); GI50 (SNB-19): 1 µM (active); GI50 (Malme-3M): 0.644 µM (active); GI50 (KM12): 1.02 µM (active); GI50 (UO-31): 2.05 µM (inactive); GI50 (HOP-92): 6.65 µM (inactive); GI50 (A549): 3.38 µM (inactive); GI50 (MOLT-4): 3.93 µM (inactive); GI50 (HOP-18): 49.4 µM (inactive); GI50 (HOP-62): 7.6 µM (inactive); GI50 (RXF 393): 39.4 µM (inactive); GI50 (SK-OV-3): 11.3 µM (inactive); GI50 (SF-268): 8.05 µM (inactive); GI50 (NCI-H460): 2.23 µM (inactive); GI50 (HL-60): 2.09 µM (inactive); GI50 (LXFL 529): 1.64 µM (inactive); GI50 (TK-10): 2.34 µM (inactive); GI50 (U-251): 0.236 µM (active); GI50 (M19-MEL): 1.04 µM (active); GI50 (DMS-273): 0.327 µM (active); GI50 (SR): 1.36 µM (inactive); GI50 (OVCAR-3): 1.08 µM (active); GI50 (K562): 1.97 µM (inactive); GI50 (M14): 4.28 µM (inactive); GI50 (HCT-15): 1.08 µM; GI50 (SF-539): 1.21 µM (inactive); GI50 (UACC-257): 0.0215 µM (active); GI50 (OVCAR-8): 12.2 µM (inactive); GI50 (HT-29): 1.35 µM (inactive)

From ChEMBL document CHEMBL1201862, “PubChem BioAssay data set” (2004)
